Source: publication PMC6812656 (Cancer cell, 2019)

Assays:
[1] = test system: NB4 cells; test: Cellular uptake by LC-MS/MS quantitation, NB4; assay type: cell-based, human; conditions: 10 μM for 24 hr
[2] = test system: HDAC, DOTL1, BRD, LSD1 and Jumonji domain-containing histone demethylases; test: Inhibition of epigenetic enzymes in vitro; assay type: biochemical
[3] = test system: NB4 cells; test: Cell proliferation assay, NB4; assay type: cell-based; conditions: Homo sapiens, NB-4, 72 h, read-out: IC50, proliferation
[4] = test system: MONOMAC6 cells; test: Cellular uptake by LC-MS/MS quantitation, MONOMAC6; assay type: cell-based, human; conditions: 10 μM for 24 hr
[5] = target: T1, ALKBH5 (Homo sapiens, UniProt Q6P6C2); test: HPLC-based assay of inhibition of ALKBH5 m6A demethylation in RNA; assay type: biochemical
Target sequence in this assay (Q6P6C2 67-394 limits assumed): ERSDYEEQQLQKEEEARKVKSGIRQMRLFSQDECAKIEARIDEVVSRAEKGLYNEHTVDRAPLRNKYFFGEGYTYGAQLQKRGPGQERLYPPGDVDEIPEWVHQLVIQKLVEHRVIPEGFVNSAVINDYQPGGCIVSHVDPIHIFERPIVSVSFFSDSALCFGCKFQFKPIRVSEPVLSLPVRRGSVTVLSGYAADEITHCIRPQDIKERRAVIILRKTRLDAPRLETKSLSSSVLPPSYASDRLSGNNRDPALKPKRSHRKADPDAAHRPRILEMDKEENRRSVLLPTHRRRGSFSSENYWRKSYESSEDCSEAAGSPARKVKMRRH

[6] = test system: MONOMAC6 cells; test: Cell proliferation assay, MONOMAC6; assay type: cell-based; conditions: Homo sapiens, MONO-MAC-6, 72 h, read-out: IC50, proliferation
[7] = target: T2, COX-2 (Homo sapiens, UniProt P35354); test: COX fluorescent inhibitor screening assay, COX-2; assay type: biochemical; conditions: even at 50 μM
T2 sequence (P35354 18-604): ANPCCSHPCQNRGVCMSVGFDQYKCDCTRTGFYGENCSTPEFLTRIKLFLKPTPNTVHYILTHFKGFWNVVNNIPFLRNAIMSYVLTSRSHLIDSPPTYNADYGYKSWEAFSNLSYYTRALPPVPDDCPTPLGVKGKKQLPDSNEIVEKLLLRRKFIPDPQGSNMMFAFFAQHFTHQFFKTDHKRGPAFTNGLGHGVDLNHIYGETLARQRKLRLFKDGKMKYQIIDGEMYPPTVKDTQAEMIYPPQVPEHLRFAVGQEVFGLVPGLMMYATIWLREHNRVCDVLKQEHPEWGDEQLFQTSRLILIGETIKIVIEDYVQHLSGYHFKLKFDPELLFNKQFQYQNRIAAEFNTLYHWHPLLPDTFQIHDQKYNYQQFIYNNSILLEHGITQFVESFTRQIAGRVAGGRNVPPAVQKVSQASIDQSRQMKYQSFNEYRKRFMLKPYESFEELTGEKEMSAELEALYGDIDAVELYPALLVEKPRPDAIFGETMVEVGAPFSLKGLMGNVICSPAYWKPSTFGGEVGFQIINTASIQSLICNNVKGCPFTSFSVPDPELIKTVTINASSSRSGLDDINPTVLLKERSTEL

[8] = target: T3, COX-1 (Ovis aries, UniProt P05979); test: COX fluorescent inhibitor screening assay, COX-1; assay type: biochemical; conditions: even at 50 μM
T3 sequence (P05979 25-600): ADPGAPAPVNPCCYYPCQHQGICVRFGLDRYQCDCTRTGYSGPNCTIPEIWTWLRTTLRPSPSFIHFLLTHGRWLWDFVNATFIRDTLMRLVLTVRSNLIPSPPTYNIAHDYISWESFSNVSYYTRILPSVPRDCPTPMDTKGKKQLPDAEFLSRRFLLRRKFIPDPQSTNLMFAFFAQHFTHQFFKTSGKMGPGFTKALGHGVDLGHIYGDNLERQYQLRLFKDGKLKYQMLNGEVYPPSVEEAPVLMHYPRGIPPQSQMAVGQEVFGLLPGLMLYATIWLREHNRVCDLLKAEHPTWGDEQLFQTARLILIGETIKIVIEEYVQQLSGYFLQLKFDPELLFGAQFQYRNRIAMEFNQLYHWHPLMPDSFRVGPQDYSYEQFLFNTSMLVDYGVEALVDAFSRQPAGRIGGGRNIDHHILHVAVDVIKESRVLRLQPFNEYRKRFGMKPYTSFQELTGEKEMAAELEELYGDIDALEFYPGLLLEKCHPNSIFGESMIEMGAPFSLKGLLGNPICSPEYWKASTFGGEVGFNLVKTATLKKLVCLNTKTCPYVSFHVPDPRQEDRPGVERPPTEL

[9] = test system: m6A peaks in mRNA of MONOMAC6 AML cells; test: m6A-seq in MONOMAC6 cells; assay type: cell-based, human; conditions: 5 μM, 72 hr, peaks identified in both DMSO and treated groups
[10] = test system: human primary AML cells; test: Cell proliferation assay, primary AML cells from four patients; assay type: cell-based; conditions: 96 h, read-out: IC50, proliferation of primary AML cells
[11] = test system: human normal bone marrow (BM) cells; test: Proliferation of normal bone marrow cells; assay type: cell-based; conditions: BM cells from a healthy donor
[12] = test system: MONOMAC6 AML cells; test: MONOMAC6 xeno-transplantation leukemic model; assay type: in vivo, NSGS mice; conditions: 2 mg/kg i.p. daily for 10 days, from 10 days post xeno-transplantation
[13] = target: T4, TET1 protein (Homo sapiens, UniProt Q8NFU7); test: TET1 enzyme activity in vitro; assay type: biochemical; conditions: 20 μM
T4 sequence (Q8NFU7 1418-2136 limits assumed): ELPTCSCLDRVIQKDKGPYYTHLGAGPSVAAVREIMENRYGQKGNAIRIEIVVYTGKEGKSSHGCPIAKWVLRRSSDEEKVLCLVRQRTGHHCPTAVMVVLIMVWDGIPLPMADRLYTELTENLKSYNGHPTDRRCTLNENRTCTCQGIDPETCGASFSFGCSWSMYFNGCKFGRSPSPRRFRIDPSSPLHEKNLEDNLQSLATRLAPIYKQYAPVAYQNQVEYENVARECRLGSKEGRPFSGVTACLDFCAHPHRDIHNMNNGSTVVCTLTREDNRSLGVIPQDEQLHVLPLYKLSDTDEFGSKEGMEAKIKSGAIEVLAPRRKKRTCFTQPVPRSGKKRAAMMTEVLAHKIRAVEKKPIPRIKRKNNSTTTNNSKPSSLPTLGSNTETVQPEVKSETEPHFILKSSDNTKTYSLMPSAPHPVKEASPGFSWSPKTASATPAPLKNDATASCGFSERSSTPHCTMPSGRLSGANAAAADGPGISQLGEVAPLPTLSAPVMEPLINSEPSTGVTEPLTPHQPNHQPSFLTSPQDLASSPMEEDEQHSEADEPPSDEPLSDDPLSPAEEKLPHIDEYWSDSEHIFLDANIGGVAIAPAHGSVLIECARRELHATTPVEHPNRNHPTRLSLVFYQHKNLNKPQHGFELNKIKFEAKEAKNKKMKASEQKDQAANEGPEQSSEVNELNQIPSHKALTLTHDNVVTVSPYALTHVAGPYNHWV

[14] = Microsomal stability assay; assay type: in vitro ADME; conditions: SD, rat, liver microsomes
[15] = test system: MA9.3ITD, MA9.3RAS, U937, ML-2 and MV4-11 AML cell lines; test: Cell proliferation assay, panel of additional AML cell lines; assay type: cell-based; conditions: Homo sapiens, 96 h, read-out: IC50, proliferation
[16] = target: T5, FTO (Homo sapiens, UniProt Q9C0B1); test: DARTS assay for FTO in AML cell lysates; assay type: binding; conditions: 50, 200, 500 μM
Target sequence in this assay (Q9C0B1 whole entry): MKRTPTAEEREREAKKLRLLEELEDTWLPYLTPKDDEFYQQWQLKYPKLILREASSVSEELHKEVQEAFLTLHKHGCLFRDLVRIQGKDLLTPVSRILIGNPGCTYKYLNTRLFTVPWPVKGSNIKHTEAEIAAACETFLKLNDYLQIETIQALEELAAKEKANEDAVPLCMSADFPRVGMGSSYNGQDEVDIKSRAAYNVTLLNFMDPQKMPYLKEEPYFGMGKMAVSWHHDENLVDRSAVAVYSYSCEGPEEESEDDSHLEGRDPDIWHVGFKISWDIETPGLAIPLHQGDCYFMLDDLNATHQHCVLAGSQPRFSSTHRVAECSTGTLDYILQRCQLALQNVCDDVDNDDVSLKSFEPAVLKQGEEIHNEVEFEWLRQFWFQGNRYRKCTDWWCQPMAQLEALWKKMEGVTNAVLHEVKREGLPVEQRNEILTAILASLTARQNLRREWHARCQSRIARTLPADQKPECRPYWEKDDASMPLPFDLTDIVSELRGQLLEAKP

[17] = target: T1, ALKBH5; test: DARTS assay for ALKBH5 in AML cell lysates; assay type: binding
Target sequence in this assay (Q6P6C2 whole entry): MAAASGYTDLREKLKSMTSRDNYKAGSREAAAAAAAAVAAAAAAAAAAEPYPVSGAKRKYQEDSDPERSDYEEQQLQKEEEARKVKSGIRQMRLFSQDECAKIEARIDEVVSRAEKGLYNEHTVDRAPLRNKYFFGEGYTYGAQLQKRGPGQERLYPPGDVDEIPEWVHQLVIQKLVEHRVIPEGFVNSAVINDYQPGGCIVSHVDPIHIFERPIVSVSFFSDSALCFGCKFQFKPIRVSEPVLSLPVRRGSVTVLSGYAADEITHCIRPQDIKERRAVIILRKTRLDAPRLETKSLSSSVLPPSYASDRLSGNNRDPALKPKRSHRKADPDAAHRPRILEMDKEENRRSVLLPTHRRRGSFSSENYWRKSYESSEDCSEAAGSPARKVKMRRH

[18] = test system: functional primary AML LSCs; test: Secondary transplantation of PDX AML cells; conditions: AML cells from primary FB23-2-treated PDX mice
[19] = test system: oncogenic proteases; test: Protease profiling; assay type: biochemical, human; conditions: 1 μM or 10 μM
[20] = test system: primary AML cells (patient Pt 2017_63); test: PDX AML mouse model; conditions: 6 mg/kg/day i.p. for 17 days
[21] = Toxicity study in BALB/c mice; assay type: in vivo; conditions: 20 mg/kg i.p. daily for 14 days
[22] = test system: NB4 and MONOMAC6 cells; test: Cell proliferation assay, NB4 and MONOMAC6; assay type: cell-based; conditions: Homo sapiens, MONO-MAC-6, 72 h, read-out: IC50, anti-proliferative activity
[23] = Pharmacokinetics in SD rats; assay type: in vivo; conditions: male, Sprague Dawley, rat, plasma, ip, 3 mg/kg
[24] = target: T5, FTO; test: HPLC-based assay of inhibition of FTO m6A demethylation in RNA; assay type: biochemical; conditions: HPLC quantification
Target sequence in this assay (Q9C0B1 32-505 limits assumed): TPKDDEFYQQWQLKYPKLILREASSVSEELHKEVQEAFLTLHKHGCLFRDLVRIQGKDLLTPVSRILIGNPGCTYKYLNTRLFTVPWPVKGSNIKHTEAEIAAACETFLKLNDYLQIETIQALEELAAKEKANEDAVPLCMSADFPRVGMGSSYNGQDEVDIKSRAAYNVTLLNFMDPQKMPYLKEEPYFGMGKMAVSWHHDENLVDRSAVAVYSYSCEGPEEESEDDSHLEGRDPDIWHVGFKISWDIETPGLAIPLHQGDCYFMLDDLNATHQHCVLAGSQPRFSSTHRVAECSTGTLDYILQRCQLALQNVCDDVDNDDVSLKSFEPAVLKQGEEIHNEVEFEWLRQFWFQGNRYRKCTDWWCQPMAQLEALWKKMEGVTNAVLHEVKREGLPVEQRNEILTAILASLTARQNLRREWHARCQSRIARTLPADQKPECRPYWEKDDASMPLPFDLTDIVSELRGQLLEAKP

## Cc1noc(C)c1-c1cc(Cl)c(Nc2ccccc2C(=O)O)c(Cl)c1 [FB23, 2-((2,6-dichloro-4-(3,5-dimethylisoxazol-4-yl)phenyl)amino)benzoic acid]
[1]
  intracellular concentration: 0.02 nmol/million
[2]
  effect on activities of epigenetic targets in vitro: slightly attenuated
[3]
  IC50: 44.8 µM
[4]
  intracellular concentration: 0.015 nmol/million
[5]
  inhibition of ALKBH5 demethylation in vitro: neither FB23 nor FB23-2 inhibits
[6]
  IC50: 23.6 µM
[7]
  inhibition of COX-2: neither FB23 nor FB23-2 was observed to significantly inhibit
[8]
  inhibition of COX-1: neither FB23 nor FB23-2 was observed to significantly inhibit

## Cc1noc(C)c1-c1cc(Cl)c(Nc2ccccc2C(=O)NO)c(Cl)c1 [FB23-2, 2-((2,6-dichloro-4-(3,5-dimethylisoxazol-4-yl)phenyl)amino)-N-hydroxybenzamide]
[9]
  share of m6A peaks increased upon treatment: 62.1%
[10]
  IC50: 1.6 to 16 µM
[11]
  effect on proliferation of normal BM cells: minimally altered proliferation
[12]
  survival of leukemic mice: almost doubling the median survival
[2]
  effect on activities of epigenetic targets in vitro: slightly attenuated
[13]
  inhibition of TET1 protein in vitro: minimally inhibited
[14]
  CLint scaled at 3 μM: 19.7 mL/min/kg
  half-life at 3 μM: 2.13 h
[15]
  IC50: 1.9 to 5.2 µM
[16]
  protease resistance of FTO protein (DARTS): protease-resistant
[17]
  direct binding to ALKBH5 (DARTS): could not directly bind
[18]
  secondary PDX mice still surviving after 100 days: 50%
[19]
  inhibition of oncogenic proteases: barely inhibited
[5]
  inhibition of ALKBH5 demethylation in vitro: neither FB23 nor FB23-2 inhibits
[20]
  median survival time: 58 days
[7]
  inhibition of COX-2: neither FB23 nor FB23-2 was observed to significantly inhibit
[21]
  body weight loss: no evidence of body weight loss
  hematopoiesis (hematology and plasma biochemistry) vs vehicle: no significant difference
  physical damage on organs: nor was any physical damage observed
[22]
  IC50: 0.8 to 1.5 µM
[23]
  AUC(0-t): 2180 ± 152 ng·h/mL
  Cmax: 2420 ± 90.9 ng/mL
  Tmax: 4.8 min
  half-life: 6.7 ± 1.3 h
[8]
  inhibition of COX-1: neither FB23 nor FB23-2 was observed to significantly inhibit
[24]
  inhibitory activity on FTO demethylation in vitro: maintains inhibitory activity
